Laboratory results: publication PMC11121628, “Regulation of T Lymphocyte Functions through Calcium Signaling Modulation by Nootkatone” (International Journal of Molecular Sciences, 2024)

Legend:
Type in all cases: cell-based
KV1.3 = target: T1, KV1.3 (Homo sapiens, UniProt P22001); experiment: whole-cell patch clamp of IKV1.[…] in Jurkat T cells
T1 construct: gene KCNA3; KV1.3 current in Jurkat T cells

KCa3.1 = target: T2, KCa3.1 (Homo sapiens, UniProt O15554); experiment: whole-cell patch clamp of IKCa3.[…] in stable HEK293T cells; details: HEK-293T
T2 construct: gene KCNN4
T2 sequence (O15554 whole entry): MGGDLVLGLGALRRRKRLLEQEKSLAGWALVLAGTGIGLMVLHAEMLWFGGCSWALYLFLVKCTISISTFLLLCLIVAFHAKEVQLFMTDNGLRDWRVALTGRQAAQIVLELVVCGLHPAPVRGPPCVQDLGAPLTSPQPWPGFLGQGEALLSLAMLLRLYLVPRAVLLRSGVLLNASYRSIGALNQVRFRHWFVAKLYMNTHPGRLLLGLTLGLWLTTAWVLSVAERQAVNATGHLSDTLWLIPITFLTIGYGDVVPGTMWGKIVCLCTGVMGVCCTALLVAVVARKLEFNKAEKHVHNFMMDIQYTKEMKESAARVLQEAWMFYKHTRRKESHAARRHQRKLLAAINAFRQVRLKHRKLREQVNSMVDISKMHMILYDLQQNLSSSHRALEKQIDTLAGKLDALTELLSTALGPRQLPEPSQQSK

ORAI1 (CRAC channel) = target: T3, ORAI1 (CRAC channel) (Homo sapiens, UniProt Q96D31); experiment: whole-cell patch clamp of ICRAC in transfected HEK293T cells
T3 construct: human ORAI1 (hORAI1) co-transfected with hSTIM1 in HEK293T cells; with STIM1
T3 sequence (Q96D31 whole entry): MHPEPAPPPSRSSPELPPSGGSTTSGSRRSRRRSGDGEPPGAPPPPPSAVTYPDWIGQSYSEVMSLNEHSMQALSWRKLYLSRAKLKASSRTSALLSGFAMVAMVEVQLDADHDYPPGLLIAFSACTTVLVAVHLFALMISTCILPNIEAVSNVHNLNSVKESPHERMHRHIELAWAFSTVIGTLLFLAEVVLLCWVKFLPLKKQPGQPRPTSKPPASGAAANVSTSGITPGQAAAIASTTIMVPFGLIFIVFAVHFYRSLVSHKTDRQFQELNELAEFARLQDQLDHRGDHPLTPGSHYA
T3 sequence (Q13586 23-685, further chain): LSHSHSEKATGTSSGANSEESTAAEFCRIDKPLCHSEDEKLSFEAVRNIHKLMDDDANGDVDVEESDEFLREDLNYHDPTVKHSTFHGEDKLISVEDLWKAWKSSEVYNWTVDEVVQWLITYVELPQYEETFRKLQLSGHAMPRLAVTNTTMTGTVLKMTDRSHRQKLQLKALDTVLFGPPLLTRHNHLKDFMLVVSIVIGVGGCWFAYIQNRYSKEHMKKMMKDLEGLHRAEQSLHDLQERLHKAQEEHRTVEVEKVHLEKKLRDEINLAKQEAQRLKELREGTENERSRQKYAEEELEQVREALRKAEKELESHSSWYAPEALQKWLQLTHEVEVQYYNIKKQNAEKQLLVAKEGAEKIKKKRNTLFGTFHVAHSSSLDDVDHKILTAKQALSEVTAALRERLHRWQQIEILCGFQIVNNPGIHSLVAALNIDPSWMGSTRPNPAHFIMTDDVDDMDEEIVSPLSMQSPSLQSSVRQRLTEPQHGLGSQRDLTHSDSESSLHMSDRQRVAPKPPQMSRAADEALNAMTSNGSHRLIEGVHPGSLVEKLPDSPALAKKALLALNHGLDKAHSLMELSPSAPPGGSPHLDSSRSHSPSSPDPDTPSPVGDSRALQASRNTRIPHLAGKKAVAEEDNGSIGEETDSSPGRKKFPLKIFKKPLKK

T1 sequence (P22001 whole entry): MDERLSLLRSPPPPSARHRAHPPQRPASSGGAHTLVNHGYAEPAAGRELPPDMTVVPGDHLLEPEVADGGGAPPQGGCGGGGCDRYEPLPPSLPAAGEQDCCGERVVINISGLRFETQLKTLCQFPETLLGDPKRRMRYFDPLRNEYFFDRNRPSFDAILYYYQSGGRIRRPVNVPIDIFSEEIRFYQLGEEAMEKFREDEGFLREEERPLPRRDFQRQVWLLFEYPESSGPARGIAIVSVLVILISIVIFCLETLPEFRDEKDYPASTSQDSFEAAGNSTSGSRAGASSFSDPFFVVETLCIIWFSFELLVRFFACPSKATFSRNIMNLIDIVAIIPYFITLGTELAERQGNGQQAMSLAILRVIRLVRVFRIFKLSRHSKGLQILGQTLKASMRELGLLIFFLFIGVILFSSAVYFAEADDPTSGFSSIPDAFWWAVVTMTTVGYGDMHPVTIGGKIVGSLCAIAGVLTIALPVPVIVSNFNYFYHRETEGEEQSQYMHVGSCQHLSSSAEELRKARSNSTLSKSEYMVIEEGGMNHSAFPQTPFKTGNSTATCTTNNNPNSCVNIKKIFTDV

C=C(C)[C@@H]1CCC2=CC(=O)C[C@@H](C)[C@]2(C)C1 [nootkatone]
IC50 (KV1.3): 10.8 µM | inhibition at 100 µM (KCa3.1): ~20% | IC50 (ORAI1 (CRAC channel)): ~12.6 µM
